From PubChem BioAssay AID248 (DTP/NCI, 2004)
Several values for one entry are separate records, joined by “and”; a condition that tells them apart may be missing. Identical values can stand only once. Inconclusive results and toxic doses are left out. Rule as the data show it: active = T/C of 150% or more; inactive = T/C below 125%.

Tested on: L1210 leukemia ip in BDF1 mice, survival T/C
Assay: NCI In Vivo Anticancer Drug Screen. Data for tumor model L1210 Leukemia (intraperitoneal) in B6D2F1 (BDF1) mice
Settings: endpoint: mean survival time, higher = longer survival
Procedure, shortened: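 Read-out is survival time, reported as the treated-group measurement over the vehicle-control measurement.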

[1] = dose: 100.0 mg/kg/injection, schedule: Q01DX001 (ip), vehicle: saline
[2] = dose: 200.0 mg/kg/injection, schedule: Q01DX001 (ip), vehicle: saline
[3] = dose: 400.0 mg/kg/injection, schedule: Q01DX001 (ip), vehicle: saline
[4] = dose: 100.0 mg/kg/injection, schedule: Q01DX001 (ip), vehicle: Klucel (hydroxypropylcellulose) (HPC)
[5] = dose: 200.0 mg/kg/injection, schedule: Q01DX001 (ip), vehicle: Klucel (hydroxypropylcellulose) (HPC)
[6] = dose: 50.0 mg/kg/injection, schedule: Q01DX009 (ip), vehicle: saline with Tween-80
[7] = dose: 100.0 mg/kg/injection, schedule: Q01DX009 (ip), vehicle: saline with Tween-80

Measured: T/C

CCOC(=O)C1=NN(c2ccccc2)C(=O)C1N=Nc1c(Br)cc(S(N)(=O)=O)cc1Br (centres undefined)
inactive: [1] 96 % of control | [2] 101 % of control | [3] 98 % of control

C=CCOC(=O)C(C)(O)C(Cl)c1ccccc1 (centres undefined)
inactive: dose: 100.0 mg/kg/injection, schedule: Q04DX002 (ip), vehicle: saline 103 % of control | dose: 200.0 mg/kg/injection, schedule: Q04DX002 (ip), vehicle: saline 100 % of control | dose: 400.0 mg/kg/injection, schedule: Q04DX002 (ip), vehicle: saline 100 % of control

CCOC(=O)c1cnc(C)nc1Nc1ccccc1I
inactive: dose: 100.0 mg/kg/injection, schedule: Q04DX003 (ip), vehicle: Klucel (hydroxypropylcellulose) (HPC) 106 % of control | dose: 200.0 mg/kg/injection, schedule: Q04DX003 (ip), vehicle: Klucel (hydroxypropylcellulose) (HPC) 97 % of control | dose: 400.0 mg/kg/injection, schedule: Q04DX003 (ip), vehicle: Klucel (hydroxypropylcellulose) (HPC) 101 % of control

Cc1c(CCC(C)C)oc2cc3oc(CCC(C)C)c(C)c3cc12
inactive: dose: 75.0 mg/kg/injection, schedule: Q01DX001 (ip), vehicle: carboxymethylcellulose (CMC) 96 % of control | dose: 150.0 mg/kg/injection, schedule: Q01DX001 (ip), vehicle: carboxymethylcellulose (CMC) 90 % of control | dose: 300.0 mg/kg/injection, schedule: Q01DX001 (ip), vehicle: carboxymethylcellulose (CMC) 90 % of control

O=S(=O)(c1ccccc1)C1CN=NC1c1ccccc1 (centres undefined)
inactive: dose: 50.0 mg/kg/injection, schedule: Q01DX009 (ip), vehicle: acetone 95 % of control | [1] 100 % of control | dose: 100.0 mg/kg/injection, schedule: Q01DX009 (ip), vehicle: acetone 93 % of control | [2] 94 % of control | dose: 200.0 mg/kg/injection, schedule: Q01DX009 (ip), vehicle: acetone 92 % of control | [3] 96 % of control

CC(=O)n1[nH]c(=O)c2ccccc2c1=O
inactive: [4] 103 % of control | [5] 105 % of control | dose: 400.0 mg/kg/injection, schedule: Q01DX001 (ip), vehicle: Klucel (hydroxypropylcellulose) (HPC) 103 % of control

Cc1ccc(-c2cn(CCCOc3ccccc3)c(=O)nc2N)cc1
inactive: dose: 50.0 mg/kg/injection, schedule: Q01DX001 (ip), vehicle: Klucel (hydroxypropylcellulose) (HPC) 89 % of control | [4] 99 % of control | [5] 87 % of control

O=C1OC(CO)C(O)C1O (centres undefined)
inactive: [1] 101 % of control | [2] 95 % of control | [3] 91 % of control

Cc1c2cc[nH]c(C(F)(F)F)c2cc2c1nc1ccccc12
inactive: dose: 16.0 mg/kg/injection, schedule: Q01DX005 (ip), vehicle: saline 101 % of control | dose: 32.0 mg/kg/injection, schedule: Q01DX005 (ip), vehicle: saline 103 % of control | dose: 64.0 mg/kg/injection, schedule: Q01DX005 (ip), vehicle: saline 103 % of control | dose: 128.0 mg/kg/injection, schedule: Q01DX005 (ip), vehicle: saline 103 % of control

CC(Br)C(=O)Nc1ccc(C(=O)O)c(O)c1 (centres undefined)
inactive: dose: 25.0 mg/kg/injection, schedule: Q01DX009 (ip), vehicle: saline with Tween-80 112 % of control | [6] 98 % of control | [7] 100 % of control and 107 % of control

Cc1ccc(C)c(NC(=S)NC(=O)c2ccc(Cl)cc2Cl)c1
inactive: dose: 100.0 mg/kg/injection, schedule: Q01DX001 (ip), vehicle: saline with Tween-80 104 % of control | dose: 100.0 mg/kg/injection, schedule: Q04DX002 (ip), vehicle: saline with Tween-80 95 % of control and 100 % of control | dose: 100.0 mg/kg/injection, schedule: Q04DX003 (ip), vehicle: saline with Tween-80 102 % of control | dose: 200.0 mg/kg/injection, schedule: Q01DX001 (ip), vehicle: saline with Tween-80 104 % of control | dose: 200.0 mg/kg/injection, schedule: Q04DX002 (ip), vehicle: saline with Tween-80 96 % of control and 110 % of control | dose: 200.0 mg/kg/injection, schedule: Q04DX003 (ip), vehicle: saline with Tween-80 105 % of control | dose: 400.0 mg/kg/injection, schedule: Q01DX001 (ip), vehicle: saline with Tween-80 100 % of control | dose: 400.0 mg/kg/injection, schedule: Q04DX002 (ip), vehicle: saline with Tween-80 96 % of control and 102 % of control | dose: 400.0 mg/kg/injection, schedule: Q04DX003 (ip), vehicle: saline with Tween-80 100 % of control

CN(C)Cc1c(C=C(c2ccccc2)c2ccccc2)ccc2ccccc12
inactive: dose: 50.0 mg/kg/injection, schedule: Q01DX001 (ip), vehicle: carboxymethylcellulose (CMC) 94 % of control | dose: 100.0 mg/kg/injection, schedule: Q01DX001 (ip), vehicle: carboxymethylcellulose (CMC) 96 % of control | dose: 200.0 mg/kg/injection, schedule: Q01DX001 (ip), vehicle: carboxymethylcellulose (CMC) 94 % of control | dose: 400.0 mg/kg/injection, schedule: Q01DX001 (ip), vehicle: carboxymethylcellulose (CMC) 96 % of control

CC(C)CC(N)C(=O)NC1(C(=O)O)C2CC3CC(C2)CC1C3 (centres undefined)
inactive: dose: 17.5 mg/kg/injection, schedule: Q01DX009 (ip), vehicle: Klucel (hydroxypropylcellulose) (HPC) 101 % of control | dose: 35.0 mg/kg/injection, schedule: Q01DX009 (ip), vehicle: Klucel (hydroxypropylcellulose) (HPC) 96 % of control | dose: 70.0 mg/kg/injection, schedule: Q01DX009 (ip), vehicle: Klucel (hydroxypropylcellulose) (HPC) 97 % of control | dose: 75.0 mg/kg/injection, schedule: Q01DX009 (ip), vehicle: Klucel (hydroxypropylcellulose) (HPC) 103 % of control | dose: 150.0 mg/kg/injection, schedule: Q01DX009 (ip), vehicle: Klucel (hydroxypropylcellulose) (HPC) 97 % of control | dose: 300.0 mg/kg/injection, schedule: Q01DX009 (ip), vehicle: Klucel (hydroxypropylcellulose) (HPC) 92 % of control

CNC(C)CC1CCCCC1 (centres undefined)
inactive: dose: 0.78 mg/kg/injection, schedule: Q04DX003 (ip), vehicle: saline 94 % of control | dose: 1.56 mg/kg/injection, schedule: Q01DX009 (ip), vehicle: saline 100 % of control | dose: 1.56 mg/kg/injection, schedule: Q04DX003 (ip), vehicle: saline 98 % of control | dose: 3.12 mg/kg/injection, schedule: Q01DX009 (ip), vehicle: saline 102 % of control | dose: 3.12 mg/kg/injection, schedule: Q04DX003 (ip), vehicle: saline 98 % of control | dose: 6.25 mg/kg/injection, schedule: Q01DX009 (ip), vehicle: saline 97 % of control | dose: 6.25 mg/kg/injection, schedule: Q04DX003 (ip), vehicle: saline 98 % of control | dose: 12.5 mg/kg/injection, schedule: Q01DX009 (ip), vehicle: saline 96 % of control | dose: 12.5 mg/kg/injection, schedule: Q04DX003 (ip), vehicle: saline 100 % of control | dose: 25.0 mg/kg/injection, schedule: Q01DX009 (ip), vehicle: saline 97 % of control | dose: 25.0 mg/kg/injection, schedule: Q04DX003 (ip), vehicle: saline with Tween-80 94 % of control | dose: 50.0 mg/kg/injection, schedule: Q01DX009 (ip), vehicle: saline 106 % of control

COc1cc2c(cc1OC)C1CCc3cc4c(cc3C1N=C2)OCO4 (centres undefined)
inactive: dose: 80.0 mg/kg/injection, schedule: Q01DX009 (ip), vehicle: saline 96 % of control | dose: 120.0 mg/kg/injection, schedule: Q01DX009 (ip), vehicle: saline 98 % of control | dose: 240.0 mg/kg/injection, schedule: Q01DX009 (ip), vehicle: saline 98 % of control | dose: 400.0 mg/kg/injection, schedule: Q01DX009 (ip), vehicle: saline 91 % of control

CCCCCCCC/C=C\CCCCCCCC(=O)NCCOC
inactive: dose: 37.5 mg/kg/injection, schedule: Q01DX009 (ip), vehicle: saline 97 % of control | dose: 75.0 mg/kg/injection, schedule: Q01DX009 (ip), vehicle: saline 92 % of control | dose: 75.0 mg/kg/injection, schedule: Q04DX003 (ip), vehicle: saline 90 % of control | dose: 150.0 mg/kg/injection, schedule: Q01DX009 (ip), vehicle: saline 99 % of control | dose: 150.0 mg/kg/injection, schedule: Q04DX003 (ip), vehicle: saline 98 % of control | dose: 300.0 mg/kg/injection, schedule: Q04DX003 (ip), vehicle: saline 88 % of control

Cc1cc(S(=O)(=O)Cl)c(Cl)cc1Cl
inactive: [1] 96 % of control | [2] 103 % of control | [3] 96 % of control

C/C(=N\N=C(/C)c1ccc(O)cc1)c1ccc(O)cc1
inactive: [6] 96 % of control | [7] 92 % of control | dose: 200.0 mg/kg/injection, schedule: Q01DX009 (ip), vehicle: saline with Tween-80 89 % of control

COc1cc2cnccc2cc1OCc1ccccc1
inactive: dose: 25.0 mg/kg/injection, schedule: Q01DX009 (ip), vehicle: water 96 % of control | dose: 50.0 mg/kg/injection, schedule: Q01DX009 (ip), vehicle: water 97 % of control | dose: 100.0 mg/kg/injection, schedule: Q01DX009 (ip), vehicle: water 100 % of control
